Data reported in US20090239841A1, “Diaryl Ureas as CB1 Antagonists” (priority 2004, published 2009).

Molecular target: T1, hCB1 (Homo sapiens, UniProt P21554)
T1 construct: made in house; host or cells: Sf9 insect cells (baculovirus), P2 membranes
Test: Agonist-induced GTP binding (GTPγ35S) assay at CB1, Example 8
Type: biochemical
Settings: Table II; IC50 at CB1, GTP binding with 1 nM CP55,940; read-out: IC50
In short: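 Antagonism read as inhibition of 1 nM CP55,940-stimulated GTPγ35S ([…]) binding, compounds at 10^−10 to 10^−5 M. Baculovirus-infected Sf9 membranes bearing hCB1 plus G-protein subunits, 60 min room-temperature incubation with 5 μM GDP. Filtration and scintillation counting; data as percent over basal.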

T1 sequence (P21554 whole entry): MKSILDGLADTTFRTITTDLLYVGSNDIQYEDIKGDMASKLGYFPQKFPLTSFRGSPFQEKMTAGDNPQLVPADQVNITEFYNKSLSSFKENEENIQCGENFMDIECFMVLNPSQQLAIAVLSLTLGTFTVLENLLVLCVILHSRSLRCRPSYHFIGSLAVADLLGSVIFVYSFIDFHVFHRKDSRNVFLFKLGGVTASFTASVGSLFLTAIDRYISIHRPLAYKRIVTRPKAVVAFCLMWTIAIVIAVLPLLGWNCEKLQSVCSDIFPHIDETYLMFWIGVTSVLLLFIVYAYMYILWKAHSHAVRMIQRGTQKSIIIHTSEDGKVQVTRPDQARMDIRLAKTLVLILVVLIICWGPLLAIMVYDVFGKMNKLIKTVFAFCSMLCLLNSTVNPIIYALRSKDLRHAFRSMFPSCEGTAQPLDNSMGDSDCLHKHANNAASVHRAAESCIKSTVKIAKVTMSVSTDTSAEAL

Compound | IC50 [µM]
Nc1ncc(Br)cc1NC(=O)Nc1ccc(OC(F)F)cc1 [Compound 136, N-(2-amino-5-bromopyridin-3-yl)-N′-[4-(difluoromethoxy)phenyl]urea] | < 2
O=C(Nc1ccc(OC(F)F)cc1)Nc1cc(OC(F)F)ncn1 [Compound 137, N-[4-(difluoromethoxy)phenyl]-N′-[6-(difluoromethoxy)pyrimidin-4-yl]urea] | < 2
O=C(Nc1ccc(OC(F)F)cc1)Nc1cccc(-c2cocn2)c1 [Compound 138] | < 2
N#Cc1cc(NC(=O)Nc2ccc(OC(F)F)cc2)ccc1F [Compound 139, N-(3-cyano-4-fluorophenyl)-N′-[4-(difluoromethoxy)phenyl]urea] | < 2
O=C(Nc1ccc(OC(F)F)cc1)Nc1ccc(C(=O)c2ccccc2)cc1 [Compound 140, N-(4-benzoylphenyl)-N′-[4-(difluoromethoxy)phenyl]urea] | < 2
O=C(Nc1ccc(OC(F)F)cc1)Nc1cccc2cccc(Cl)c12 [Compound 141, N-(8-chloro-1-naphthyl)-N′-[4-(difluoromethoxy)phenyl]urea] | < 2
Cc1ccc2cc(NC(=O)Nc3ccc(OC(F)F)cc3)ccc2n1 [Compound 142, N-[4-(difluoromethoxy)phenyl]-N′-(2-methylquinolin-6-yl)urea] | < 2
O=C(Nc1cccc(OC(F)F)c1)Nc1ccc(N2CCOCC2)c(Cl)c1 [Compound 143, N-(3-chloro-4-morpholin-4-ylphenyl)-N′-[3-(difluoromethoxy)phenyl]urea] | < 2
CC(C)Oc1ccc(NC(=O)Nc2cccc(OC(F)F)c2)cc1 [Compound 144, N-[3-(difluoromethoxy)phenyl]-N′-(4-isopropoxyphenyl)urea] | < 2
O=C(Nc1cccc(OC(F)F)c1)Nc1cccc(OC(F)(F)F)c1 [Compound 145, N-{3-(difluoromethoxy)phenyl]-N′-[3-(trifluoromethoxy)phenyl]urea] | < 2
Cc1noc(C)c1-c1cccc(NC(=O)Nc2cccc(OC(F)F)c2)c1 [Compound 146, N-[3-(difluoromethoxy)phenyl]-N′-[3-(3,5-dimethylisoxazol-4-yl)phenyl]urea] | < 2
Cc1cc(-c2cccc(NC(=O)Nc3cccc(OC(F)F)c3)c2)cc(C)n1 [Compound 147] | < 2
CCOC(=O)c1cccc(NC(=O)Nc2ccc(OC(F)F)cc2)c1 [Compound 148, ethyl 3-[({[4-(difluoromethoxy)phenyl]amino}carbonyl)amino]benzoate] | < 2
O=C(Nc1ccc(OC(F)F)cc1)Nc1cccnc1Cl [Compound 149, N-(2-chloropyridin-3-yl)-N′-[4-(difluoromethoxy)phenyl]urea] | < 2
Cc1ccnc(NC(=O)Nc2ccc(OC(F)F)cc2)c1 [Compound 151, N-[4-(difluoromethoxy)phenyl]-N′-(4-methylpyridin-2-yl)urea] | < 2
CCc1ccc(NC(=O)Nc2ccc(F)c(C#N)c2)cc1 [Compound 152, N-(3-cyano-4-fluorophenyl)-N′-(4-ethylphenyl)urea] | < 2
CCc1ccc(NC(=O)Nc2ccc(Cl)nc2)cc1 [Compound 153, N-(6-chloropyridin-3-yl)-N′-(4-ethylphenyl)urea] | < 2
CCCc1ccc(NC(=O)Nc2cccc(C)c2)cc1 [Compound 154, N-(3-methylphenyl)-N′-(4-propylphenyl)urea] | < 2
CCCCc1ccc(NC(=O)Nc2cccc(C)c2)cc1 [Compound 155, N-(4-butylphenyl)-N′-(3-methylphenyl)urea] | < 2

Compound | IC50 [µM]
Cc1cccc(NC(=O)Nc2cccc(OC(C)C)c2)c1 [Compound 156, N-(3-isopropoxyphenyl)-N′-(3-methylphenyl)urea] | < 2
Cc1ccc(NC(=O)Nc2ccc(C(C)C)cc2)cc1 [Compound 157, N-(4-isopropylphenyl)-N′-(4-methylphenyl)urea] | < 2
CCOc1ccc(NC(=O)Nc2cccc(C)c2)cc1 [Compound 158, N-(4-ethoxyphenyl)-N′-(3-methylphenyl)urea] | < 2
CCCOc1ccc(NC(=O)Nc2cccc(C)c2)cc1 [Compound 159, N-(3-methylphenyl)-N′-(4-propoxyphenyl)urea] | < 2
Cc1ccc(NC(=O)Nc2ccc(C)c(F)c2)cc1 [Compound 160, N-(3-fluoro-4-methylphenyl)-N′-(4-methylphenyl)urea] | < 2
O=C(Nc1ccccc1)Nc1ccc2c(c1)CCC2 [Compound 161, N-(2,3-dihydro-1H-inden-5-yl)-N′-phenylurea] | < 2
Cc1cccc(NC(=O)Nc2ccc(N3CCOCC3)c(Cl)c2)c1 [Compound 162, N-(3-chloro-4-morpholin-4-ylphenyl)-N′-(3-methylphenyl)urea] | < 2
Cc1cccc(NC(=O)Nc2cccc(-c3ccnc(C)n3)c2)c1 [Compound 163, N-(3-methylphenyl)-N′-[3-(2-methylpyrimidin-4-yl)phenyl]urea] | < 2
Cc1ccc(NC(=O)Nc2cccc(-c3ccnc(C)n3)c2)cc1 [Compound 164, N-(4-methylphenyl)-N′-[3-(2-methylpyrimidin-4-yl)phenyl]urea] | < 2
Cc1cccc(NC(=O)Nc2ccc(-n3cnc(Cl)c3Cl)cc2)c1 [Compound 165, N-{4-(4,5-dichloro-1H-imidazol-1-yl)phenyl]-N′-(3-methylphenyl)urea] | < 2
Cc1ccc(NC(=O)Nc2ccc(-n3cnc(Cl)c3Cl)cc2)cc1 [Compound 166, N-[4-(4,5-dichloro-1H-imidazol-1-yl)phenyl]-N′-(4-methylphenyl)urea] | < 2
O=C(Nc1ccccc1)Nc1ccc(N2CCCCC2)cc1 [Compound 167, N-phenyl-N′-(4-piperidin-1-ylphenyl)urea] | < 2
Cc1cccc(NC(=O)Nc2ccc(N3CCCCC3)cc2)c1 [Compound 168, N-(3-methylphenyl)-N′-(4-piperidin-1-ylphenyl)urea] | < 2
Cc1ccc(NC(=O)Nc2ccc(N3CCCCC3)cc2)cc1 [Compound 169, N-(4-methylphenyl)-N′-(4-piperidin-1-ylphenyl)urea] | < 2
Cc1ccc(NC(=O)Nc2cc3ccccc3c(Br)n2)cc1 [Compound 170, N-(1-bromoisoquinolin-3-yl)-N′-(4-methylphenyl)urea] | < 2
Cc1ccc(NC(=O)Nc2ccc(C)cc2)cc1 [Compound 171, N,N′-bis(4-methylphenyl)urea] | < 2
Cc1ccc(NC(=O)Nc2ccc(F)cc2)cc1 [Compound 172, N-(4-fluorophenyl)-N′-(4-methylphenyl)urea] | < 2
Cc1ccc(NC(=O)Nc2cccc(F)c2)cc1 [Compound 173, N-(3-fluorophenyl)-N′-(4-methylphenyl)urea] | < 2
CCc1cccc(NC(=O)Nc2ccc(C)cc2)c1 [Compound 174, N-(3-ethylphenyl)-N′-(4-methylphenyl)urea] | < 2

Compound | IC50 [µM]
CCc1ccc(NC(=O)Nc2ccc(F)cc2)cc1 [Compound 175, N-(4-ethylphenyl)-N′-(4-fluorophenyl)urea] | < 2
CC(C)c1ccc(NC(=O)Nc2ccc(F)cc2)cc1 [Compound 176, N-(4-fluorophenyl)-N′-(4-isopropylphenyl)urea] | < 2
CCCc1ccc(NC(=O)Nc2cccc(F)c2)cc1 [Compound 177, N-(3-fluorophenyl)-N′-(4-propylphenyl)urea] | < 2
CCCc1ccc(NC(=O)Nc2ccc(F)cc2)cc1 [Compound 178, N-(4-fluorophenyl)-N′-(4-propylphenyl)urea] | < 2
CCc1ccc(NC(=O)Nc2cccc(CC)c2)cc1 [Compound 179, N-(3-ethylphenyl)-N′-(4-ethylphenyl)urea] | < 2
CCc1ccc(NC(=O)Nc2cccc(Cl)c2)cc1 [Compound 180, N-(3-chlorophenyl)-N′-(4-ethylphenyl)urea] | < 2
CCc1ccc(NC(=O)Nc2ccc(C(C)C)cc2)cc1 [Compound 181, N-(4-ethylphenyl)-N′-(4-isopropylphenyl)urea] | < 2
CC(C)c1ccc(NC(=O)Nc2ccc(Cl)cc2)cc1 [Compound 182, N-(4-chlorophenyl)-N′-(4-isopropylphenyl)urea] | < 2
CCCc1ccc(NC(=O)Nc2cccc(CC)c2)cc1 [Compound 183, N-(3-ethylphenyl)-N′-(4-propylphenyl)urea] | < 2
CCCc1ccc(NC(=O)Nc2cccc(Cl)c2)cc1 [Compound 184, N-(3-chlorophenyl)-N′-(4-propylphenyl)urea] | < 2
CCCc1ccc(NC(=O)Nc2ccc(Cl)cc2)cc1 [Compound 185, N-(4-chlorophenyl)-N′-(4-propylphenyl)urea] | < 2
Cc1ccc(NC(=O)Nc2cccc(C#N)c2)cc1 [Compound 186, N-(3-cyanophenyl)-N′-(4-methylphenyl)urea] | < 2
CC(=O)c1ccc(NC(=O)Nc2ccc(C)cc2)cc1 [Compound 187, N-(4-acetylphenyl)-N′-(4-methylphenyl)urea] | < 2
CC(=O)c1ccc(NC(=O)Nc2cccc(F)c2)cc1 [Compound 188, N-(4-acetylphenyl)-N′-(3-fluorophenyl)urea] | < 2
CC(=O)c1ccc(NC(=O)Nc2ccc(F)cc2)cc1 [Compound 189, N-(4-acetylphenyl)-N′-(4-fluorophenyl)urea] | < 2
CCc1cccc(NC(=O)Nc2ccc(C(C)=O)cc2)c1 [Compound 190, N-(4-acetylphenyl)-N′-(3-ethylphenyl)urea] | < 2
CC(=O)c1ccc(NC(=O)Nc2cccc(Cl)c2)cc1 [Compound 191, N-(4-acetylphenyl)-N′-(3-chlorophenyl)urea] | < 2
CC(=O)c1ccc(NC(=O)Nc2ccc(Cl)cc2)cc1 [Compound 192, N-(4-acetylphenyl)-N′-(4-chlorophenyl)urea] | < 2
